Measurements published in patent publication US20260256792A1, “TREATMENT OF CHRONIC SPONTANEOUS URTICARIA BY ADMINISTERING (R)-2-[3-[4-AMINO-3-(2-FLUORO-4-PHENOXY-PHENYL)PYRAZOLO[3,4-D]PYRIMIDIN-1-YL]PIPERIDINE-1-CARBONYL]-4-METHYL-4-[4-(OXETAN-3-YL)PIPERAZIN-1-YL]PENT-2-ENENITRILE” (priority 2023, published 2026).

Test system: moderate-to-severe chronic spontaneous urticaria (CSU)
Test: Phase 2 CSU study: hives severity score over 7 days (HSS7)
Format: in vivo, human
Parameters: key to HSS7 Change from baseline, Median / HSS7, Median / HSS7, Max / HSS7 Change from baseline, Q1 / HSS7 Change from baseline, Q3 / HSS7 Change from baseline, Max: 7-day sum of daily hive scores, each 0 = none to 3 = >50 hives
Excerpt: The study comprises a 12 week, randomized, double-blind, placebo-controlled, multi-center, dose-ranging efficacy and safety phase, followed by a 40 week open label extension (OLE) phase (see FIG. 1).
The study consists of three phases and an optional OLE phase.
The UAS is a validated PRO measure. The daily UAS is the sum of the daily Hive Severity Score (HSS, ranging from 0=None to 3=more than 50 hives) and the daily Itch Severity Score (ISS, ranging from 0=None to 3=intense), the 2 key urticaria signs and symptoms which are wheals and itch. The daily UAS scores range from 0 to 6 point/day. Daily UAS scores are summed over 7-day period to create the UAS7, ranging from 0 to 42, and are composed of the HSS7 and ISS7 components. […] Patients were to complete the UAS using the e-diary. The e-diary was to be used once daily on the same time of each day recording of participant's answers to the urticaria activity score over 7 days (UAS7) questionnaire. For participants who entered the OLE phase, their answers to the UAS7 questionnaire were also to be collected from Week 20 to Week24 and from Week 48 to Week 52.
The following secondary endpoints were to be analyzed using the same approach as for the primary endpoint: • Change from baseline in UAS7 at Week 4 • Change from baseline in UAS7 at Week 12 (for US and US reference countries) • Change from baseline in ISS7 at Week 12 (except US and US reference countries) • Change from baseline in HSS7 at Week 12

[1] = Week 10, 400 mg BID, Omalizumab-Naïve Population
[2] = Week 10, 400 mg BID, Patients with Prior Omalizumab Use
[3] = Week 10, 400 mg QPM, Omalizumab-Naïve Population
[4] = Week 10, 400 mg QPM, Patients with Prior Omalizumab Use
[5] = Week 10, 400 mg TID, Omalizumab-Naïve Population
[6] = Week 10, 400 mg TID, Patients with Prior Omalizumab Use
[7] = Week 11, 400 mg BID, Omalizumab-Naïve Population
[8] = Week 11, 400 mg BID, Patients with Prior Omalizumab Use
[9] = Week 11, 400 mg QPM, Omalizumab-Naïve Population
[10] = Week 11, 400 mg QPM, Patients with Prior Omalizumab Use
[11] = Week 11, 400 mg TID, Omalizumab-Naïve Population
[12] = Week 11, 400 mg TID, Patients with Prior Omalizumab Use
[13] = Week 12, 400 mg BID, Omalizumab-Naïve Population
[14] = Week 12, 400 mg BID, Patients with Prior Omalizumab Use
[15] = Week 12, 400 mg QPM, Omalizumab-Naïve Population
[16] = Week 12, 400 mg QPM, Patients with Prior Omalizumab Use
[17] = Week 12, 400 mg TID, Omalizumab-Naïve Population
[18] = Week 12, 400 mg TID, Patients with Prior Omalizumab Use

SMILES: CC(C)(C=C(C#N)C(=O)N1CCC[C@@H](n2nc(-c3ccc(Oc4ccccc4)cc3F)c3c(N)ncnc32)C1)N1CCN(C2COC2)CC1 [rilzabrutinib, (R)-2-[3-[4-amino-3-(2-fluoro-4-phenoxy-phenyl)pyrazolo[3,4-d]pyrimidin-1-yl]piperidine-1-carbonyl]-4-methyl-4-[4-(oxetan-3-yl)piperazin-1-yl]pent-2-enenitrile]
- HSS7, Median [1]: 6.50
- HSS7 Change from baseline, Mean (SD) [1]: −6.95 (5.65)
- HSS7 Change from baseline, Median [1]: −6.50
- HSS7 Percent change from baseline, Mean (SD) [1]: −53.45 (42.56) %
- HSS7 Percent change from baseline, Median [1]: −47.73%
- HSS7, Mean (SD) [2]: 5.20 (7.19)
- HSS7, Median [2]: 2.00
- HSS7 Change from baseline, Mean (SD) [2]: −9.60 (9.13)
- HSS7 Change from baseline, Median [2]: −12.00
- HSS7 Percent change from baseline, Mean (SD) [2]: −58.10 (53.18) %
- HSS7 Percent change from baseline, Median [2]: −90.48%
- HSS7, Mean (SD) [3]: 9.88 (5.93)
- HSS7, Median [3]: 8.00
- HSS7 Change from baseline, Mean (SD) [3]: −5.27 (5.66)
- HSS7 Change from baseline, Median [3]: −4.00
- HSS7 Percent change from baseline, Mean (SD) [3]: −33.86 (34.68) %
- HSS7 Percent change from baseline, Median [3]: −28.64%
- HSS7, Mean (SD) [4]: 8.00 (NC)
- HSS7, Median [4]: 8.00
- HSS7 Change from baseline, Mean (SD) [4]: −12.00 (NC)
- HSS7 Change from baseline, Median [4]: −12.00
- HSS7 Percent change from baseline, Mean (SD) [4]: −60.00 (NC) %
- HSS7 Percent change from baseline, Median [4]: −60.00%
- HSS7, Mean (SD) [5]: 5.87 (5.06)
- HSS7, Median [5]: 4.50
- HSS7 Change from baseline, Mean (SD) [5]: −8.20 (5.62)
- HSS7 Change from baseline, Median [5]: −9.00
- HSS7 Percent change from baseline, Mean (SD) [5]: −57.32 (34.80) %
- HSS7 Percent change from baseline, Median [5]: −63.10%
- HSS7, Mean (SD) [6]: 3.00 (4.65)
- HSS7, Median [6]: 1.00
- HSS7 Change from baseline, Mean (SD) [6]: −13.03 (7.21)
- HSS7 Change from baseline, Median [6]: −13.00
- HSS7 Percent change from baseline, Mean (SD) [6]: −79.31 (25.96) %
- HSS7 Percent change from baseline, Median [6]: −91.50%
- HSS7, Mean (SD) [7]: 7.13 (7.07)
- HSS7, Median [7]: 5.83
- HSS7 Change from baseline, Mean (SD) [7]: −7.34 (6.14)
- HSS7 Change from baseline, Median [7]: −7.00
- HSS7 Percent change from baseline, Mean (SD) [7]: −52.82 (41.27) %
- HSS7 Percent change from baseline, Median [7]: −54.55%
- HSS7, Mean (SD) [8]: 4.80 (7.46)
- HSS7, Median [8]: 0.00
- HSS7 Change from baseline, Mean (SD) [8]: −10.00 (9.67)
- HSS7 Change from baseline, Median [8]: −12.00
- HSS7 Percent change from baseline, Median [8]: −100.00%
- HSS7, Mean (SD) [9]: 10.18 (6.18)
- HSS7, Median [9]: 9.33
- HSS7 Change from baseline, Mean (SD) [9]: −5.18 (5.64)
- HSS7 Change from baseline, Median [9]: 3.00
- HSS7 Percent change from baseline, Mean (SD) [9]: −33.21 (36.21) %
- HSS7 Percent change from baseline, Median [9]: −30.00%
- HSS7, Mean (SD) [10]: 9.00 (NC)
- HSS7, Median [10]: 9.00
- HSS7 Change from baseline, Mean (SD) [10]: −11.00 (NC)
- HSS7 Change from baseline, Median [10]: −11.00
- HSS7 Percent change from baseline, Mean (SD) [10]: −55.00 (NC) %
- HSS7 Percent change from baseline, Median [10]: −55.00%
- HSS7, Mean (SD) [11]: 6.17 (5.40)
- HSS7, Median [11]: 5.83
- HSS7 Change from baseline, Mean (SD) [11]: −7.90 (6.07)
- HSS7 Change from baseline, Median [11]: −8.00
- HSS7 Percent change from baseline, Mean (SD) [11]: −55.30 (37.59) %
- HSS7 Percent change from baseline, Median [11]: −61.11%
- HSS7, Mean (SD) [12]: 2.67 (4.84)
- HSS7, Median [12]: 0.00
- HSS7 Change from baseline, Mean (SD) [12]: −13.36 (7.26)
- HSS7 Change from baseline, Median [12]: −13.00
- HSS7 Percent change from baseline, Mean (SD) [12]: −82.14 (27.76) %
- HSS7 Percent change from baseline, Median [12]: −100.00%
- HSS7, Mean (SD) [13]: 7.52 (7.21)
- HSS7, Median [13]: 7.00
- HSS7 Change from baseline, Mean (SD) [13]: −7.09 (6.54)
- HSS7 Change from baseline, Median [13]: −4.50
- HSS7 Percent change from baseline, Mean (SD) [13]: −49.56 (40.81) %
- HSS7 Percent change from baseline, Median [13]: −37.50%
- HSS7, Mean (SD) [14]: 4.25 (8.50)
- HSS7, Median [14]: 0.00
- HSS7 Change from baseline, Median [14]: −14.50
- HSS7 Percent change from baseline, Mean (SD) [14]: −75.00 (50.00) %
- HSS7 Percent change from baseline, Median [14]: −100.00%
- HSS7, Median [15]: 8.58
- HSS7 Change from baseline, Mean (SD) [15]: −4.85 (5.63)
- HSS7 Change from baseline, Median [15]: −4.00
- HSS7 Percent change from baseline, Mean (SD) [15]: −31.20 (34.88) %
- HSS7 Percent change from baseline, Median [15]: −33.18%
- HSS7, Mean (SD) [16]: 9.00 (NC)
- HSS7, Median [16]: 9.00
- HSS7 Change from baseline, Mean (SD) [16]: −11.00 (NC)
- HSS7 Change from baseline, Median [16]: −11.00
- HSS7 Percent change from baseline, Mean (SD) [16]: −55.00 (NC) %
- HSS7 Percent change from baseline, Median [16]: −55.00%
- HSS7, Mean (SD) [17]: 5.23 (4.86)
- HSS7, Median [17]: 4.08
- HSS7 Change from baseline, Mean (SD) [17]: −8.77 (5.84)
- HSS7 Change from baseline, Median [17]: −8.00
- HSS7 Percent change from baseline, Mean (SD) [17]: −60.93 (34.27) %
- HSS7 Percent change from baseline, Median [17]: −64.29%
- HSS7, Mean (SD) [18]: 3.20 (5.22)
- HSS7, Median [18]: 0.00
- HSS7 Change from baseline, Mean (SD) [18]: −14.40 (7.60)
- HSS7 Change from baseline, Median [18]: −17.00
- HSS7 Percent change from baseline, Mean (SD) [18]: −78.57 (29.45) %
- HSS7 Percent change from baseline, Median [18]: −100.00%
